Experiments:
[1] = target: T1, IRE1α (Homo sapiens, UniProt O75460); assay: Biochemical assay: inhibition of RNase activity of IRE1α; conditions: enzyme 0.325 nM, substrate 100 nM, 20 minutes
T1 construct: purchased Signal Chem E31-11G
Outline: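 RNase cleavage monitored as dequenching of a 5′ Alexa Fluor 647/3′ quencher RNA oligo (100 nM), stopped with 5 M urea after 20 min at room temperature. Enzyme 0.325 nM, preceded by 30 min compound pre-incubation; buffer Tris/MgCl2/KCl/DTT/Tween, 4% DMSO final. IC50 from curve fit of % inhibition.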

[2] = tested on: ARPE-19 cells stably expressing XBP1 (a.a. 1-376); assay: Cellular XBP1 splicing assay (NanoLuc luciferase, thapsigargin); assay type: cell-based; conditions: thapsigargin 150 nM
Outline: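 ARPE-19 cells carrying an XBP1(1-376)-NanoLuc splicing reporter were pretreated with compound (10-point ½-log series, 0.117% DMSO) for 30 min, then stressed with 150 nM thapsigargin for 4 h at 37° C. Luminescence was read, and IC50 values came from sigmoidal fits of percent inhibition of control.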

T1 sequence (O75460 468-977 limits assumed): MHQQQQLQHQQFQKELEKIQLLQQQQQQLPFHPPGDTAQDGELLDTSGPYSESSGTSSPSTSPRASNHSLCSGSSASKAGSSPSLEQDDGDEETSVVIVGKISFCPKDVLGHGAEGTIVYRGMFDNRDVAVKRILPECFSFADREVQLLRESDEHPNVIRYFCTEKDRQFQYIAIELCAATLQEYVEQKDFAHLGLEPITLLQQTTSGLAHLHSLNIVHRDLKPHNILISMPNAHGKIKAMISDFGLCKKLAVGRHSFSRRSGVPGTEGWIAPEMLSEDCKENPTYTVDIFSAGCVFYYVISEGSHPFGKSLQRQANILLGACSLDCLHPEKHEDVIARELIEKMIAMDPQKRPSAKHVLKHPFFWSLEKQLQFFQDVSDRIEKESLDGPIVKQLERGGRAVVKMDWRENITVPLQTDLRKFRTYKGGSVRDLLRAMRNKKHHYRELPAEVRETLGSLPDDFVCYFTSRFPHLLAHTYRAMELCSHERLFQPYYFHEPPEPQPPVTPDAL

Row | IC50 [1] [nM] | IC50 ([2]; Homo sapiens, ARPE-19, 4 h) [nM] | IC50 ([2]; 4 hour) [nM] | SMILES
1 | 20 | 110 |  | COCCN[C@H]1CC[C@H](c2cnc(N)c3c(-c4cc(F)c(NS(=O)(=O)c5ccc(OC)cc5)cc4F)nn(C(C)C)c32)CC1 [Compound A9, N-(4-(4-amino-1-isopropyl-7-((1r,4r)-4-((2-methoxyethyl)amino)cyclohexyl)-1H-pyrazolo[4,3-c]pyridin-3-yl)-2,5-difluorophenyl)-4-methoxybenzenesulfonamide]
2 | 3.5 | 15 |  | Nc1ncc([C@H]2CC[C@H](NC3COC3)CC2)c2c1c(-c1ccc(NS(=O)(=O)c3ccccc3Cl)c(F)c1)nn2C1CC1 [Compound A56, N-(4-(4-amino-1-cyclopropyl-7-((1r,4r)-4-(oxetan-3-ylamino)cyclohexyl)-1H-pyrazolo[4,3-c]pyridin-3-yl)-2-fluorophenyl)-2-chlorobenzenesulfonamide]
3 | 12 | 13 |  | CC(C)n1nc(-c2cc(F)c(NS(=O)(=O)c3ccccc3F)cc2F)c2c(N)ncc([C@H]3CC[C@H](N(C)C4COC4)CC3)c21 [Compound A38]
4 | 1.9 | 3.9 |  | CCOc1ccc(F)c(S(=O)(=O)Nc2cc(F)c(-c3nn(C(C)C)c4c3c(N)ncc4[C@H]3CC[C@H](NCCOC)CC3)cc2F)c1 [Compound A8, N-(4-(4-amino-1-isopropyl-7-((1r,4r)-4-((2-methoxyethyl)amino)cyclohexyl)-1H-pyrazolo[4,3-c]pyridin-3-yl)-2,5-difluorophenyl)-5-ethoxy-2-fluorobenzenesulfonamide]
5 | 6.8 |  | 160 | CC(C)n1nc(-c2ccc(NS(=O)(=O)c3cc(Cl)ccc3F)c(F)c2)c2c(N)ncc(C3=CCC(NC4COC4)CC3)c21 (single isomer, unassigned) [Compound B14, N-(4-(4-amino-1-isopropyl-7-(4-(oxetan-3-ylamino)cyclohex-1-en-1-yl)-1H-pyrazolo[4,3-c]pyridin-3-yl)-2-fluorophenyl)-5-chloro-2-fluorobenzenesulfonamide]
6 | 3.8 | 93 |  | COCCN[C@H]1CC[C@H](c2cnc(N)c3c(-c4cc(F)c(NS(=O)(=O)c5cccc(C(F)(F)F)c5)cc4F)nn(C(C)C)c32)CC1 [Compound A30, N-(4-(4-amino-1-isopropyl-7-((1r,4r)-4-((2-methoxyethyl)amino)cyclohexyl)-1H-pyrazolo[4,3-c]pyridin-3-yl)-2,5-difluorophenyl)-3-(trifluoromethyl)benzenesulfonamide]
7 | 1.5 | 13 |  | COCCN[C@H]1CC[C@H](c2cnc(N)c3c(-c4cc(F)c(NS(=O)(=O)Cc5ccccc5F)cc4F)nn(C(C)C)c32)CC1 [Compound A26, N-(4-(4-amino-1-isopropyl-7-((1r,4r)-4-((2-methoxyethyl)amino)cyclohexyl)-1H-pyrazolo[4,3-c]pyridin-3-yl)-2,5-difluorophenyl)-1-(2-fluorophenyl)methanesulfonamide]
8 | 7.4 |  | 68 | CCn1nc(-c2ccc(NS(=O)(=O)Cc3ccccc3Cl)c(F)c2)c2c(N)ncc(C3=CCC(NC4COC4)CC3)c21 (single isomer, unassigned) [Compound B29, N-(4-(4-amino-1-ethyl-7-(4-(oxetan-3-ylamino)cyclohex-1-en-1-yl)-1H-pyrazolo[4,3-c]pyridin-3-yl)-2-fluorophenyl)-1-(2-chlorophenyl)methanesulfonamide]
9 | 4.6 | 3 |  | COCCN[C@H]1CC[C@H](c2cnc(N)c3c(-c4cc(F)c(NS(=O)(=O)c5cc(OC)ccc5Cl)cc4F)nn(C(C)C)c32)CC1 [Compound A2, N-(4-(4-amino-1-isopropyl-7-((1r,4r)-4-((2-methoxyethyl)amino)cyclohexyl)-1H-pyrazolo[4,3-c]pyridin-3-yl)-2,5-difluorophenyl)-2-chloro-5-methoxybenzenesulfonamide]
10 | 31 |  | 190 | CC(C)n1nc(-c2ccc(NS(=O)(=O)c3ccccc3Cl)c(F)c2)c2c(N)ncc(C3=CCC(NC4CC(F)(F)C4)CC3)c21 (single isomer, unassigned) [Compound B51]
11 | 14 |  | 67 | CC(CF)NC1CC=C(c2cnc(N)c3c(-c4ccc(NS(=O)(=O)c5ccccc5Cl)c(F)c4)nn(C(C)C)c23)CC1 (single isomer, unassigned) [Compound B40, N-(4-(4-amino-7-(4-((1-fluoropropan-2-yl)amino)cyclohex-1-en-1-yl)-1-isopropyl-1H-pyrazolo[4,3-c]pyridin-3-yl)-2-fluorophenyl)-2-chlorobenzenesulfonamide]
12 | 5.9 |  | 78 | CCn1nc(-c2ccc(NS(=O)(=O)Cc3ccccc3F)c(F)c2)c2c(N)ncc(C3=CCC(NC4COC4)CC3)c21 (single isomer, unassigned) [Compound B27, N-(4-(4-amino-1-ethyl-7-(4-(oxetan-3-ylamino)cyclohex-1-en-1-yl)-1H-pyrazolo[4,3-c]pyridin-3-yl)-2-fluorophenyl)-1-(2-fluorophenyl)methanesulfonamide]
13 | 6.1 | 4 |  | COCCN[C@H]1CC[C@H](c2cnc(N)c3c(-c4cc(F)c(NS(=O)(=O)c5ccccc5Cl)cc4F)nn(C(C)C)c32)CC1 [Compound A19, N-(4-(4-amino-1-isopropyl-7-((1r,4r)-4-((2-methoxyethyl)amino)cyclohexyl)-1H-pyrazolo[4,3-c]pyridin-3-yl)-2,5-difluorophenyl)-2-chlorobenzenesulfonamide]
14 | 1.9 | 25 |  | COCCN[C@H]1CC[C@H](c2cnc(N)c3c(-c4cc(F)c(NS(=O)(=O)c5cc(OC(F)F)ccc5F)cc4F)nn(C(C)C)c32)CC1 [Compound A5, N-(4-(4-amino-1-isopropyl-7-((1r,4r)-4-((2-methoxyethyl)amino)cyclohexyl)-1H-pyrazolo[4,3-c]pyridin-3-yl)-2,5-difluorophenyl)-5-(difluoromethoxy)-2-fluorobenzenesulfonamide]
15 | 6.6 | 13 |  | COCCN[C@H]1CC[C@H](c2cnc(N)c3c(-c4cc(F)c(NS(=O)(=O)c5ccc(F)cc5Cl)cc4F)nn(C(C)C)c32)CC1 [Compound A15, N-(4-(4-amino-1-isopropyl-7-((1r,4r)-4-((2-methoxyethyl)amino)cyclohexyl)-1H-pyrazolo[4,3-c]pyridin-3-yl)-2,5-difluorophenyl)-2-chloro-4-fluorobenzenesulfonamide]
16 | 3.5 |  | 20 | Nc1ncc(C2=CCC(NC3COC3)CC2)c2c1c(-c1ccc(NS(=O)(=O)c3ccccc3Cl)c(F)c1)nn2C1CC1 (single isomer, unassigned) [Compound B19, N-(4-(4-amino-1-cyclopropyl-7-(4-(oxetan-3-ylamino)cyclohex-1-en-1-yl)-1H-pyrazolo[4,3-c]pyridin-3-yl)-2-fluorophenyl)-2-chlorobenzenesulfonamide]
17 | 1.4 |  | 24 | CC(C)n1nc(-c2ccc(NS(=O)(=O)c3cc(Cl)ccc3F)c(F)c2)c2c(N)ncc(C3=CCC(NC4COC4)CC3)c21 (single isomer, unassigned) [Compound B15, N-(4-(4-amino-1-isopropyl-7-(4-(oxetan-3-ylamino)cyclohex-1-en-1-yl)-1H-pyrazolo[4,3-c]pyridin-3-yl)-2-fluorophenyl)-5-chloro-2-fluorobenzenesulfonamide]
18 | 16 | 21 |  | CC(C)n1nc(-c2ccc(NS(=O)(=O)c3ccccc3Cl)c(F)c2)c2c(N)ncc(C3=CCC(NCCF)CC3)c21 (stereo not shown) [Compound B63, N-(4-(4-amino-7-(4-((2-fluoroethyl)amino)cyclohex-1-en-1-yl)-1-isopropyl-1H-pyrazolo[4,3-c]pyridin-3-yl)-2-fluorophenyl)-2-chlorobenzenesulfonamide]
19 | 61 | 92 |  | CC(C)n1nc(-c2ccc(NS(=O)(=O)c3ccccc3F)c(F)c2)c2c(N)ncc(C3=CCC(NC4COC4)CC3)c21 (racemic) [racemic mixture of B58 & B59, N-(4-(4-amino-1-isopropyl-7-(4-(oxetan-3-ylamino)cyclohex-1-en-1-yl)-1H-pyrazolo[4,3-c]pyridin-3-yl)-2-fluorophenyl)-2-fluorobenzenesulfonamide]
20 | 8.6 | 39 |  | COCCN[C@H]1CC[C@H](c2cnc(N)c3c(-c4cc(F)c(NS(=O)(=O)c5cc(F)ccc5F)cc4F)nn(C(C)C)c32)CC1 [Compound A31, N-(4-(4-amino-1-isopropyl-7-((1r,4r)-4-((2-methoxyethyl)amino)cyclohexyl)-1H-pyrazolo[4,3-c]pyridin-3-yl)-2,5-difluorophenyl)-2,5-difluorobenzenesulfonamide]
21 | 5.4 | 82 |  | COCCN[C@H]1CC[C@H](c2cnc(N)c3c(-c4cc(F)c(NS(=O)(=O)c5ccc(F)cc5F)cc4F)nn(C(C)C)c32)CC1 [Compound A24, N-(4-(4-amino-1-isopropyl-7-((1r,4r)-4-((2-methoxyethyl)amino)cyclohexyl)-1H-pyrazolo[4,3-c]pyridin-3-yl)-2,5-difluorophenyl)-2,4-difluorobenzenesulfonamide]
22 | 0.6 | 4.9 |  | COCC(C)N[C@H]1CC[C@H](c2cnc(N)c3c(-c4ccc(NS(=O)(=O)Cc5ccccc5Cl)c(F)c4)nn(C(C)C)c32)CC1 (stereo partly shown) [Compound A58, N-(4-(4-amino-1-isopropyl-7-((1r,4r)-4-((1-methoxypropan-2-yl)amino)cyclohexyl)-1H-pyrazolo[4,3-c]pyridin-3-yl)-2-fluorophenyl)-1-(2-chlorophenyl)methanesulfonamide]
23 | 7 | 11 |  | COCC(C)NC1CC=C(c2cnc(N)c3c(-c4ccc(NS(=O)(=O)c5ccccc5Cl)c(F)c4)nn(C(C)C)c23)CC1 (stereo not shown) [Compound B3]
